Data: the Kinase Knowledgebase extract (Sharma et al. 2016)

Target: ROCK2 (human) (UniProt O75116)
Experiment: Assessment of ROCK2 Kinase Activity

Sequence of ROCK2 (human) (O75116 whole entry, looked up): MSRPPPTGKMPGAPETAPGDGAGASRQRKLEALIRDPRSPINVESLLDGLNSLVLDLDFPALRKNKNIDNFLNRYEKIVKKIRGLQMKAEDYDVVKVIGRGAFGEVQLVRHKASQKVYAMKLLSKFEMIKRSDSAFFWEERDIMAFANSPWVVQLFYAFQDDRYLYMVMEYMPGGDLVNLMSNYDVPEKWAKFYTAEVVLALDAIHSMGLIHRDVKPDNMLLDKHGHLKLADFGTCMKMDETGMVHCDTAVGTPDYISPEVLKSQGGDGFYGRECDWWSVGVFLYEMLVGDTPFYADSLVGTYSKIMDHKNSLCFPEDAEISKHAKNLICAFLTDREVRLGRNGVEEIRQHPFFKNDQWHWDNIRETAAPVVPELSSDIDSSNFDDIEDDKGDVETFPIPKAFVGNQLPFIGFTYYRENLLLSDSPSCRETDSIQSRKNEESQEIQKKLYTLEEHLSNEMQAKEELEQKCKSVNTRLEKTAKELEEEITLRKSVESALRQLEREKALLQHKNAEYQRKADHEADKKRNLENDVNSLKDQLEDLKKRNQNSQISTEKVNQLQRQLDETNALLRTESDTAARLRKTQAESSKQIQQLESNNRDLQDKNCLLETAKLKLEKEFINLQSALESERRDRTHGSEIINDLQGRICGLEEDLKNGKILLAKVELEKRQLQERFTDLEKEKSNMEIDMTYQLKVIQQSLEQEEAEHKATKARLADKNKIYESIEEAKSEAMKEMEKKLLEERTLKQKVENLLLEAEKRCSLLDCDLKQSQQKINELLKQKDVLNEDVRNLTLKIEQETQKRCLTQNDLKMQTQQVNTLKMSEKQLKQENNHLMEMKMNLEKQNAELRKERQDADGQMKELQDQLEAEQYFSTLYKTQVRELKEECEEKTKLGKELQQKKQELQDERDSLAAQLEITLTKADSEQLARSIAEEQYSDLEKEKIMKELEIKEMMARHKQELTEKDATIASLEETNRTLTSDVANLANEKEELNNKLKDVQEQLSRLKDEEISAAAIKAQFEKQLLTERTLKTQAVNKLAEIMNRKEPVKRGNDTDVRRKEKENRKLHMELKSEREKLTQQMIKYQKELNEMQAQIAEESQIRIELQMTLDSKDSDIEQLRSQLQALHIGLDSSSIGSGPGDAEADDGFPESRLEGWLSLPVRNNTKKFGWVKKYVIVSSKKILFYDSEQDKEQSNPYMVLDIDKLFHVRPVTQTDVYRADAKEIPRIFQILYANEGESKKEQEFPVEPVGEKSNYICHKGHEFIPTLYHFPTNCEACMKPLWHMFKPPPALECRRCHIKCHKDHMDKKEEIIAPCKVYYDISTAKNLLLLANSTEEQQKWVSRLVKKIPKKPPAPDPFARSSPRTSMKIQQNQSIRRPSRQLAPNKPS

| Structure (SMILES) | IC50 [nM] |
| --- | --- |
| N[C@H]1CC[C@@H](Oc2ccc3cnccc3c2Cl)CC1 | ≤ 1000 |
| N[C@H]1CC[C@@H](Oc2ccc3cnccc3c2-c2ccsc2)CC1 | ≤ 1000 |
| c1cc2cc(O[C@H]3CC[C@@H](NC4CC4)CC3)ccc2cn1 | ≤ 1000 |
| N[C@H]1CC[C@@H](Oc2ccc3cnccc3c2Br)CC1 | ≤ 1000 |
| C=Cc1c(O[C@H]2CC[C@@H](N)CC2)ccc2cnccc12 | ≤ 1000 |
| c1cncc(CN[C@H]2CC[C@@H](Oc3ccc4cnccc4c3)CC2)c1 | ≤ 1000 |
| CC(C)N[C@H]1CC[C@@H](Oc2ccc3cnccc3c2)CC1 | ≤ 1000 |
| COc1cc(Nc2cc3cc(O[C@H]4CC[C@@H](N)CC4)ccc3cn2)cc(OC)c1OC | ≤ 1000 |

Continued, values first:

| IC50 [nM] | Structure (SMILES) |
| --- | --- |
| ≤ 1000 | CCc1cncc2ccc(O[C@H]3CC[C@@H](N)CC3)cc12 |
| ≤ 1000 | N[C@H]1CC[C@@H](Oc2ccc3cncc(Cl)c3c2)CC1 |
| ≤ 1000 | CC1(c2ccc(CNC3CCC(Oc4ccc5cnccc5c4)CC3)cc2)NC(=O)NC1=O (stereo not given) |
| ≤ 1000 | CC(=O)Nc1ccc(CN[C@H]2CC[C@@H](Oc3ccc4cnccc4c3)CC2)cc1 |
| ≤ 1000 | CN(C)C=NS(=O)(=O)c1cc(CN[C@H]2CC[C@@H](Oc3ccc4cnccc4c3Cl)CC2)ccc1Cl |
| ≤ 1000 | N[C@H]1CC[C@H](Oc2c(Cl)cc3cnccc3c2Cl)CC1 |
| ≤ 1000 | Clc1c(OC2CCC(NC3CCCCC3)CC2)ccc2cnccc12 (stereo not given) |
